ChEMBL document CHEMBL1127585, “Novel 1-phenylcycloalkanecarboxylic acid derivatives are potent and selective sigma 1 ligands” (J Med Chem, 1994)
pKi: −log10 of the molar value.

Biological target: T1, Muscarinic acetylcholine receptor M2 (Homo sapiens, UniProt P08172)
T1 sequence (P08172 whole entry): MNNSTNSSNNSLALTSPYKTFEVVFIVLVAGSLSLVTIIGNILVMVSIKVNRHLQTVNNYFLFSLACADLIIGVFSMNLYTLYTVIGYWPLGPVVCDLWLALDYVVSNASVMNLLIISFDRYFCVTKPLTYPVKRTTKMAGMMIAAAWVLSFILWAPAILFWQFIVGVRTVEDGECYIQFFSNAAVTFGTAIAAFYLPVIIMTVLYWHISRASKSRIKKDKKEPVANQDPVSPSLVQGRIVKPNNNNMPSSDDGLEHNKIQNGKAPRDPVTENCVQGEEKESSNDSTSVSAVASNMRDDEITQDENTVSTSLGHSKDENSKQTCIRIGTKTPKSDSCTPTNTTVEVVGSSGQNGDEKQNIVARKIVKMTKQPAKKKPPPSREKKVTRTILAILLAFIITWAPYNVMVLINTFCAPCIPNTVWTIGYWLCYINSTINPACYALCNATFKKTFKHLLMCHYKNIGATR
Assay: Binding affinity towards muscarinic m2 receptor; call rule not given here

SMILES | pKi
CCN(CC)CCOCCNC(=O)C1(c2ccccc2)CCCC1 | 5.31
CCN(CC)CCOCNC(=O)C1(c2ccc(Cl)c(Cl)c2)CCCCC1 | 6.30
CCN(CC)CCOCCN(C)CC1(c2ccccc2)CCCC1 | 5.80
O=C(NCOCCN1CCOCC1)C1(c2ccc(Cl)c(Cl)c2)CCCCC1 | < 5.00
CCN(CC)CCOCCOCC1(c2ccccc2)CCCC1 | 6.07
CCN(CC)CCOCCOC(=O)C1(c2ccccc2)CCCCC1 | 6.84
CCN(CC)CCOCCOC(=O)C(C)c1ccccc1 (stereo unspecified) | < 5.00
O=C(OCOCCN1CCCC1)C1(c2ccc(Cl)c(Cl)c2)CCCCC1 | 7.13
O=C(OCOCCN1CCOCC1)C1(c2ccc(Cl)c(Cl)c2)CCCCC1 | 5.92
CCN(CC)CCOCCOC(=O)C1(c2ccc(Cl)cc2)CCCC1 | 7.01
CCN(CC)CCOCOC(=O)C1(c2ccc(Cl)c(Cl)c2)CCCCC1 | 7.66
CCN(CC)CCOCCOC(=O)C1(c2ccccc2)CC1 | < 5.00
CCN(CC)CCOCCNCC1(c2ccccc2)CCCC1 | 5.64
CCN(CC)CCOCCOC(=O)C1(c2ccccc2)CCCC1 [CARBETAPENTANE] | 6.78
CCN(CC)CCOCCOC(=O)C1(c2ccc(OC)cc2)CCCC1 | 6.16

Biological target: T2, Sigma non-opioid intracellular receptor 1 (Rattus norvegicus, UniProt Q9R0C9)
Assay: Tested for its binding affinity towards sigma-1 site in rat brain, using [3H]DTG as radioligand
Assay type: tissue-based

T2 sequence (Q9R0C9 whole entry): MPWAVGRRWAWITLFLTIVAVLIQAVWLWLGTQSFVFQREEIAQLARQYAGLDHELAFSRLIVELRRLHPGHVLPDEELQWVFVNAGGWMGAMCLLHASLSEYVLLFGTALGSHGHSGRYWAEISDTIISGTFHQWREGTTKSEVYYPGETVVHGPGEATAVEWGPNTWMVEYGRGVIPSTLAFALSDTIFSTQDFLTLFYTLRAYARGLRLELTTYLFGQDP

SMILES | pKi
c1ccc(CCCCCNCCCCc2ccccc2)cc1 | 8.70

Biological target: T3, Muscarinic acetylcholine receptor M1 (Homo sapiens, UniProt P11229)
T3 sequence (P11229 whole entry): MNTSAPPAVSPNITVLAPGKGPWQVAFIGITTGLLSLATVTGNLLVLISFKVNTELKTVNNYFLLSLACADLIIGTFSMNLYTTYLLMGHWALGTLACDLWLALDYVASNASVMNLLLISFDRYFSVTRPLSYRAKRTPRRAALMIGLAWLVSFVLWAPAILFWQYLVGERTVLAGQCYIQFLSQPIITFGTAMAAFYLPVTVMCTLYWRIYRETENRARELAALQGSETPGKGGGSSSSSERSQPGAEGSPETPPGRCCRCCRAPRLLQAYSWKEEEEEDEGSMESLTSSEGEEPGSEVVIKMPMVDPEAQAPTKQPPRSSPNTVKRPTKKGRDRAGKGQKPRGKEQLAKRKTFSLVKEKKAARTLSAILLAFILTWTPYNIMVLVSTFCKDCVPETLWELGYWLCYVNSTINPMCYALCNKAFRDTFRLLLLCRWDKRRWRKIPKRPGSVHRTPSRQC
Assay: Binding affinity towards muscarinic m1 receptor

SMILES | pKi
CCN(CC)CCOCCNC(=O)C1(c2ccccc2)CCCC1 | < 5.00
CCN(CC)CCOCNC(=O)C1(c2ccc(Cl)c(Cl)c2)CCCCC1 | 6.24
CCN(CC)CCOCCN(C)CC1(c2ccccc2)CCCC1 | 6.07
O=C(NCOCCN1CCOCC1)C1(c2ccc(Cl)c(Cl)c2)CCCCC1 | < 5.00
CCN(CC)CCOCCOCC1(c2ccccc2)CCCC1 | 6.04
CCN(CC)CCOCCOC(=O)C1(c2ccccc2)CCCCC1 | 6.87
CCN(CC)CCOCCOC(=O)C(C)c1ccccc1 (stereo unspecified) | < 5.00
O=C(OCOCCN1CCCC1)C1(c2ccc(Cl)c(Cl)c2)CCCCC1 | 7.20
O=C(OCOCCN1CCOCC1)C1(c2ccc(Cl)c(Cl)c2)CCCCC1 | 5.51
CCN(CC)CCOCCOC(=O)C1(c2ccc(Cl)cc2)CCCC1 | 7.12
CCN(CC)CCOCOC(=O)C1(c2ccc(Cl)c(Cl)c2)CCCCC1 | 7.70
CCN(CC)CCOCCOC(=O)C1(c2ccccc2)CC1 | < 5.00
CCN(CC)CCOCCNCC1(c2ccccc2)CCCC1 | 5.77
CCN(CC)CCOCCOC(=O)C1(c2ccccc2)CCCC1 [CARBETAPENTANE] | 7.12
CCN(CC)CCOCCOC(=O)C1(c2ccc(OC)cc2)CCCC1 | 5.98

Biological target: T2, Sigma non-opioid intracellular receptor 1
Assay: Tested for its binding affinity towards sigma-1 site in rat brain, using [3H]-(+)-SKF- 10047 as radioligand
Assay type: tissue-based

SMILES | pKi
O=C(OCCN1CCOCC1)C1(c2ccccc2)CCCCC1 | 7.36

Biological target: Sigma non-opioid intracellular receptor 1 (Rattus norvegicus) (UniProt Q9R0C9)
Assay: Ratio between the Ki values of sigma-2 and sigma-1 receptors

Sigma non-opioid intracellular receptor 1 (Rattus norvegicus), sequence (Q9R0C9 whole entry): as the sequence (Q9R0C9 whole entry) above

SMILES | Ratio
CCN(CC)CCOCCNC(=O)C1(c2ccccc2)CCCC1 | 13
CCN(CC)CCOCNC(=O)C1(c2ccc(Cl)c(Cl)c2)CCCCC1 | 20
CCN(CC)CCOCCN(C)CC1(c2ccccc2)CCCC1 | 32
O=C(NCOCCN1CCOCC1)C1(c2ccc(Cl)c(Cl)c2)CCCCC1 | 51
CCN(CC)CCOCCOCC1(c2ccccc2)CCCC1 | 17
CCN(CC)CCOCCOC(=O)C1(c2ccccc2)CCCCC1 | 23
CCN(CC)CCOCCOC(=O)C(C)c1ccccc1 (stereo unspecified) | 78
O=C(OCOCCN1CCCC1)C1(c2ccc(Cl)c(Cl)c2)CCCCC1 | 22
O=C(OCOCCN1CCOCC1)C1(c2ccc(Cl)c(Cl)c2)CCCCC1 | 25
CCN(CC)CCOCCOC(=O)C1(c2ccc(Cl)cc2)CCCC1 | 27
CCN(CC)CCOCOC(=O)C1(c2ccc(Cl)c(Cl)c2)CCCCC1 | 30
CCN(CC)CCOCCOC(=O)C1(c2ccccc2)CC1 | 65
CCN(CC)CCOCCNCC1(c2ccccc2)CCCC1 | 1.2
CCN(CC)CCOCCOC(=O)C1(c2ccc(OC)cc2)CCCC1 | 25

Biological target: Sigma 2 receptor
Assay: Tested for its binding affinity towards sigma-2 site using [3H]-DTG as radioligand

SMILES | pKi
C=CCN1CCC2c3cc(O)ccc3CC1C2C (stereo unspecified) | 7.36

Test system: Glutamate NMDA receptor
Assay: Binding affinity towards PCP (1-(1-phenylcyclohexyl)piperidine) receptor.
Assay type: protein-complex assay

SMILES | Ki
CCN(CC)CCOCCNC(=O)C1(c2ccccc2)CCCC1 | Not Active
CCN(CC)CCOCNC(=O)C1(c2ccc(Cl)c(Cl)c2)CCCCC1 | Not Active
CCN(CC)CCOCCN(C)CC1(c2ccccc2)CCCC1 | Not Active
O=C(NCOCCN1CCOCC1)C1(c2ccc(Cl)c(Cl)c2)CCCCC1 | Not Active
CCN(CC)CCOCCOCC1(c2ccccc2)CCCC1 | Not Active
CCN(CC)CCOCCOC(=O)C1(c2ccccc2)CCCCC1 | Not Active
CCN(CC)CCOCCOC(=O)C(C)c1ccccc1 (stereo unspecified) | Not Active
O=C(OCOCCN1CCCC1)C1(c2ccc(Cl)c(Cl)c2)CCCCC1 | Not Active
O=C(OCOCCN1CCOCC1)C1(c2ccc(Cl)c(Cl)c2)CCCCC1 | Not Active
CCN(CC)CCOCCOC(=O)C1(c2ccc(Cl)cc2)CCCC1 | Not Active
Cc1ccccc1NC(=N)Nc1ccccc1C [DITOLYLGUANIDINE] | Not Active
CCN(CC)CCOCOC(=O)C1(c2ccc(Cl)c(Cl)c2)CCCCC1 | Not Active
CCN(CC)CCOCCOC(=O)C1(c2ccccc2)CC1 | Not Active
CCN(CC)CCOCCNCC1(c2ccccc2)CCCC1 | Not Active
C=CCN1CCC2c3cc(O)ccc3CC1C2C (stereo unspecified) | Not Active
CCN(CC)CCOCCOC(=O)C1(c2ccccc2)CCCC1 [CARBETAPENTANE] | Not Active

Biological target: T2, Sigma non-opioid intracellular receptor 1
Assay: Tested for its binding affinity towards sigma-1 site in rat brain using E3H1-(+)-SKF 10047 as radioligand in rat brain
Assay type: tissue-based

SMILES | pKi
CCN(CC)CCOCCNC(=O)C1(c2ccccc2)CCCC1 | 6.67
CCN(CC)CCOCNC(=O)C1(c2ccc(Cl)c(Cl)c2)CCCCC1 | 7.57
CCN(CC)CCOCCN(C)CC1(c2ccccc2)CCCC1 | 7.47
O=C(NCOCCN1CCOCC1)C1(c2ccc(Cl)c(Cl)c2)CCCCC1 | 7.49
CCN(CC)CCOCCOCC1(c2ccccc2)CCCC1 | 7.57
CCN(CC)CCOCCOC(=O)C1(c2ccccc2)CCCCC1 | 7.47
CCN(CC)CCOCCOC(=O)C(C)c1ccccc1 (stereo unspecified) | 7.40
O=C(OCOCCN1CCCC1)C1(c2ccc(Cl)c(Cl)c2)CCCCC1 | 7.49
O=C(OCOCCN1CCOCC1)C1(c2ccc(Cl)c(Cl)c2)CCCCC1 | 7.41
CCN(CC)CCOCCOC(=O)C1(c2ccc(Cl)cc2)CCCC1 | 7.62
CCN(CC)CCOCOC(=O)C1(c2ccc(Cl)c(Cl)c2)CCCCC1 | 7.66
CCN(CC)CCOCCOC(=O)C1(c2ccccc2)CC1 | 7.35
CCN(CC)CCOCCNCC1(c2ccccc2)CCCC1 | 6.05
CCN(CC)CCOCCOC(=O)C1(c2ccc(OC)cc2)CCCC1 | 7.23

Biological target: Sigma 2 receptor
Assay: Tested for its binding affinity towards sigma-2 site in rat brain using [3H]DTG as radioligand
Assay type: tissue-based

SMILES | pKi
CCN(CC)CCOCCNC(=O)C1(c2ccccc2)CCCC1 | 5.55
CCN(CC)CCOCNC(=O)C1(c2ccc(Cl)c(Cl)c2)CCCCC1 | 6.28
CCN(CC)CCOCCN(C)CC1(c2ccccc2)CCCC1 | 5.96
O=C(NCOCCN1CCOCC1)C1(c2ccc(Cl)c(Cl)c2)CCCCC1 | 5.79
CCN(CC)CCOCCOCC1(c2ccccc2)CCCC1 | 6.33
CCN(CC)CCOCCOC(=O)C1(c2ccccc2)CCCCC1 | 6.11
CCN(CC)CCOCCOC(=O)C(C)c1ccccc1 (stereo unspecified) | 5.51
O=C(OCOCCN1CCCC1)C1(c2ccc(Cl)c(Cl)c2)CCCCC1 | 6.16
O=C(OCOCCN1CCOCC1)C1(c2ccc(Cl)c(Cl)c2)CCCCC1 | 6.01
CCN(CC)CCOCCOC(=O)C1(c2ccc(Cl)cc2)CCCC1 | 6.19
CCN(CC)CCOCOC(=O)C1(c2ccc(Cl)c(Cl)c2)CCCCC1 | 6.18
CCN(CC)CCOCCOC(=O)C1(c2ccccc2)CC1 | 5.54
CCN(CC)CCOCCNCC1(c2ccccc2)CCCC1 | 5.96
CCN(CC)CCOCCOC(=O)C1(c2ccc(OC)cc2)CCCC1 | 5.82

Test system: not listed separately
Assay: Ratio between the Ki values of m1 and sigma-1 receptors

SMILES | Ratio
CCN(CC)CCOCCNC(=O)C1(c2ccccc2)CCCC1 | > 46
CCN(CC)CCOCNC(=O)C1(c2ccc(Cl)c(Cl)c2)CCCCC1 | 22
CCN(CC)CCOCCN(C)CC1(c2ccccc2)CCCC1 | 25
O=C(NCOCCN1CCOCC1)C1(c2ccc(Cl)c(Cl)c2)CCCCC1 | > 310
CCN(CC)CCOCCOCC1(c2ccccc2)CCCC1 | 34
CCN(CC)CCOCCOC(=O)C1(c2ccccc2)CCCCC1 | 4
CCN(CC)CCOCCOC(=O)C(C)c1ccccc1 (stereo unspecified) | > 250
O=C(OCOCCN1CCCC1)C1(c2ccc(Cl)c(Cl)c2)CCCCC1 | 2
O=C(OCOCCN1CCOCC1)C1(c2ccc(Cl)c(Cl)c2)CCCCC1 | 80
CCN(CC)CCOCCOC(=O)C1(c2ccc(Cl)cc2)CCCC1 | 3.1
CCN(CC)CCOCOC(=O)C1(c2ccc(Cl)c(Cl)c2)CCCCC1 | 0.9
CCN(CC)CCOCCOC(=O)C1(c2ccccc2)CC1 | > 220
CCN(CC)CCOCCNCC1(c2ccccc2)CCCC1 | 1.9
CCN(CC)CCOCCOC(=O)C1(c2ccc(OC)cc2)CCCC1 | 18

Biological target: T2, Sigma non-opioid intracellular receptor 1
Assay: Tested for its binding affinity towards sigma-1 site using E3H1-(+)-SKF 10047 as radioligand in rat brain
Assay type: tissue-based

SMILES | pKi
C=CCN1CCC2c3cc(O)ccc3CC1C2C (stereo unspecified) | 7.17
